Experimental data taken from patent publication US20070087326A1, “Method of measuring the biological activity of an urotensin II receptor” (priority 2005, published 2007).
Bridge positions count the residues as written; N and C are the ends. Square brackets hold non-standard residues; d marks the D form. Peptide text beside a SMILES is read from it. Pen = CC(C)(S)[C@H](N)C(=O)O; Orn = NCCC[C@H](N)C(=O)O

How the values were obtained:
[1] = target: T1, endogeneous human U-II receptors (RMS13 cells) (Homo sapiens, UniProt Q9UKP6); assay: CDS (CellKey) electrical impedance assay in RMS13 cells; type: cell-based; conditions: FIG. 3A
T1 construct: Cells of RMS13 and 6D9 have endogeneous human U-II receptors; host or cells: RMS13 (human) and 6D9, a sub-clone of RMS13
T1 sequence (Q9UKP6 1-389): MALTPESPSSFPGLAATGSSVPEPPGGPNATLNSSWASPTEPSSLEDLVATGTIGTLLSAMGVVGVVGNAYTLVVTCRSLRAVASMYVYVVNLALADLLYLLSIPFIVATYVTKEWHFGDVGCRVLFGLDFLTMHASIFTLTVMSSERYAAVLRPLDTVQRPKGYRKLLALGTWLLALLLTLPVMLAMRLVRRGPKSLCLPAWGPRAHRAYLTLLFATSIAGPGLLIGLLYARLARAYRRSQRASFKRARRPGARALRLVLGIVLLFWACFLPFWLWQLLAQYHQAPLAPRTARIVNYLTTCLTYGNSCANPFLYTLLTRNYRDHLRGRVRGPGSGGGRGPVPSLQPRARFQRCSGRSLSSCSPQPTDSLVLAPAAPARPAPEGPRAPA
Experimental: (§1) RMS13 was obtained from ATCC (ATCC NO: CRL-2061™, Manassas, Va.). […] The parent of the CHOrUII cells, CHO-K1 was obtained from ATCC (CAT# CRL-9618_CHOK1). The rat UT receptor was recombinantly cloned into CHO-K1 following standard molecular biology cloning techniques. The CHOrUII cells were under G418 selection. […] Angiotensin was purchased from Sigma. Urantide (PUT-3639-P1) was purchased from Peptide International (Louisville, Ky.).
(§2) Cells of RMS13 and 6D9 were cultured in RPMI medium (ATCC 30-2001) containing 10% FBS (Cat. No. SH30070.03, Hyclone, Logan, Utah). CHOrUII cells were grown in DMEMF12 (Gibco #11330-032) medium containing G418 at 1 mg/ml concentration. Cells were plated at 60 or 70K/well in a medium indicated above overnight. The medium was removed and replaced with Hanks balanced salt solution (HBSS, Gibco) containing 20 mM Hepes and 0.1% BSA. Electrical impedance was measured 2-5 minutes prior to compound addition. Compounds were added and measurements continued. The electrical impedance of the cells was measured using CellKey™ (MDS Sciex, Concord, Ontario) according to the protocol of the manufacturer, see for example Ciambrone et al. (2004, J Biomol Screen. 9(6): 467-80). […]
(§3) Cell density-dependence responses to Urotensin II (500 nM) were analyzed to determine the optimum cell density for the CDS assay at 28° C.

[2] = target: T2, endogeneous human U-II receptors (6D9 cells, sub-clone of RMS13) (Homo sapiens, UniProt Q9UKP6); assay: CDS (CellKey) electrical impedance assay in 6D9 cells; type: cell-based; conditions: FIG. 3B
T2 construct: Cells of RMS13 and 6D9 have endogeneous human U-II receptors; host or cells: RMS13 (human) and 6D9, a sub-clone of RMS13
T2 sequence (Q9UKP6 1-389): T1 sequence (Q9UKP6 1-389)
Experimental: as §1, §2, §3

[3] = target: T3, recombinant rat U-II receptors (CHOrUII cells) (Rattus norvegicus, UniProt P49684); assay: CDS (CellKey) electrical impedance assay in CHOrUII cells; type: cell-based; conditions: FIG. 3C
T3 construct: expressed in transfected cells; host or cells: CHO-K1 (ATCC CRL-9618), G418 selection
T3 sequence (P49684 1-386): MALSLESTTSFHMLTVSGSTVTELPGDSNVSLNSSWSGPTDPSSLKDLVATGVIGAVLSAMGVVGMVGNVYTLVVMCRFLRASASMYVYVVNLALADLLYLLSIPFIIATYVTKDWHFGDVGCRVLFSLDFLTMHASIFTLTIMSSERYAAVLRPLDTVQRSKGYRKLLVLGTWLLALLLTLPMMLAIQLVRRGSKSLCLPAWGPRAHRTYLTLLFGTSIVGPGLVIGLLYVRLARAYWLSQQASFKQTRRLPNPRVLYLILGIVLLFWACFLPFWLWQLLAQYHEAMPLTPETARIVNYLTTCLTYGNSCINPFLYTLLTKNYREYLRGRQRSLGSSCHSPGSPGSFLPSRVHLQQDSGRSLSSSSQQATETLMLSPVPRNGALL
Experimental: The CHOrUII cells were under G418 selection. […] Urantide (PUT-3639-P1) was purchased from Peptide International (Louisville, Ky.). Cells of RMS13 and 6D9 were cultured in RPMI medium (ATCC 30-2001) containing 10% FBS (Cat. No. SH30070.03, Hyclone, Logan, Utah). CHOrUII cells were grown in DMEMF12 (Gibco #11330-032) medium containing G418 at 1 mg/ml concentration. Cells were plated at 60 or 70K/well in a medium indicated above overnight. The medium was removed and replaced with Hanks balanced salt solution (HBSS, Gibco) containing 20 mM Hepes and 0.1% BSA. Electrical impedance was measured 2-5 minutes prior to compound addition. Compounds were added and measurements continued. […] In particular, 100 mV voltage was applied to the cells with a sweeping frequency range of 1 kHz to […]. Cell density-dependence responses to Urotensin II (500 nM) were analyzed to determine the optimum cell density for the CDS assay at 28° C.

[4] = target: human U-II receptor (endogeneous, on RMS13 and 6D9 cells) (human) (UniProt Q9UKP6); assay: cell-based or functional assay
[5] = test system: panel of receptor/ion channels; assay: binding to a panel of receptor/ion channels; conditions: data not shown
[6] = target: T4, UT receptor (Rattus norvegicus, UniProt P49684); conditions: competitive UT receptor antagonist, rat aorta (Patacchini, 2003); cited from earlier work
T4 construct: pure UT receptor antagonist in rat aorta vasoconstriction assays; host or cells: rat aorta tissue
T4 sequence (P49684 1-386): T3 sequence (P49684 1-386)

[7] = target: T5, human UT receptor (Homo sapiens, UniProt Q9UKP6); conditions: CHO cells over-expressing the human UT receptor (Camarda, 2004); cited from earlier work
T5 construct: host or cells: CHO cells over-expressing the human UT receptor
T5 sequence (Q9UKP6 1-389): T1 sequence (Q9UKP6 1-389)

Compound | effect on U-II stimulated increase in electrical impedance [1] | effect on U-II stimulated increase in electrical impedance [2] | effect on U-II stimulated increase in electrical impedance [3] | EC50 of the dose dependent increase in electrical impedance of 6D9 cells (CDS, CellKey) [4] [pM] | EC50 of the dose dependent increase in electrical impedance of RMS13 cells (CDS, CellKey) [4] [pM] | binding activity to proteins within a panel of receptor/ion channels [5] | pA2 [6] | agonist activity [7]
angiotensin | did not | did not | did not | – | – | – | – | –
Urotensin-II (peptide) | – | – | – | 420 | 270 | – | – | –
CC(C)[C@H](NC(=O)[C@@H]1CSSC(C)(C)[C@H](NC(=O)[C@@H](N)CC(=O)O)C(=O)N[C@@H](Cc2ccccc2)C(=O)N[C@H](Cc2c[nH]c3ccccc23)C(=O)N[C@@H](CCCN)C(=O)N[C@@H](Cc2ccc(O)cc2)C(=O)N1)C(=O)O [Urantide] (H-D[Pen]F[dW][Orn]YCV-OH; disulfide 2-7) | blocked the U-II stimulated increase | blocked the U-II stimulated increase | blocked the U-II stimulated increase | – | – | minimal binding activity | 8.3 | potent U-II agonist
